Here are results for 49 compounds from PubChem BioAssay AID743155 (The Scripps Research Institute Molecular Screening Center, 2013).

The source made the active and inactive calls. How the calls were made is not given here.

This experiment deals with Jurkat cells cytotoxicity, ATP luminescence. Briefly: cytotoxicity in Jurkat T cells, late-stage follow-up, cytotoxicity control for T. brucei MetRS inhibitor project, cell-based, luminescence, human T lymphocytes, Round001 (AID 743155).
Regarding `Cc1cccc(NC(=O)C2CC(=O)n3c(nc4ccccc43)N2)c1` (centres undefined), the IC50 is > 27.8 µM (inactive).

As for `COc1ccccc1NC(=O)Cn1cc(C(=O)C(=O)N2CCOCC2)c2ccccc21`, the IC50 is > 83.3 µM (inactive).

As to `O=C(NCCc1nc2ccccc2[nH]1)c1ccc(Cl)c(Cl)c1`, the IC50 is > 83.3 µM (inactive).

Consider `CCN(CCc1nc2ccc(C)cc2[nH]1)C(=O)c1ccc2ncccc2c1`, for which the IC50 is > 83.3 µM (inactive).

Regarding `CCN(CC)C(=O)C(=O)c1cn(CC(=O)Nc2ccccc2OC)c2ccccc12`, the IC50 was > 83.3 µM (inactive).

As for `Cc1cccc2[nH]c(CCN(C)C(=O)c3cccc(C4CCNC4)c3)nc12` (centres undefined), the IC50 is > 83.3 µM (inactive).

Turning to `CCN(CC)C(=O)C(=O)c1cn(CC(=O)N2CCCc3ccccc32)c2ccccc12`, the IC50 is > 83.3 µM (inactive).

As for `O=C(Cn1cc(C(=O)C(=O)N2CCOCC2)c2ccccc21)NCc1ccccc1`, the IC50 is > 83.3 µM (inactive).

As to `COc1ccc(NC(=O)CSc2nnc3c4cc(C)ccc4n(C)c3n2)cc1`, the IC50 is > 83.3 µM (inactive).

Regarding `COCCc1nc2ccc(C(=O)NCCc3nc4ccc(OC)cc4[nH]3)cc2o1`, the IC50 was > 27.8 µM (inactive).

With `O=C(Nc1ccc(F)c(Cl)c1)C1CC(=O)n2c(nc3ccccc32)N1` (centres undefined), the IC50 was > 83.3 µM (inactive).

For the compound `O=C(Cn1cc(C(=O)C(=O)N2CCCC2)c2ccccc21)Nc1ccccc1`, the IC50 was > 83.3 µM (inactive).

For the compound `Cc1ccc2[nH]c3nc(SCC(=O)Nc4ccc(C(F)(F)F)cc4)nnc3c2c1`, the IC50 is > 83.3 µM (inactive).

On to `CC(=O)N(CCc1ccccc1)C1CC(=O)N(c2ccc(Br)cc2)C1=O` (centres undefined), for which the IC50 was > 27.8 µM (inactive).

On to `CC(=O)N(CCc1ccccc1)C1CC(=O)N(c2ccc(Cl)cc2)C1=O` (centres undefined), for which the IC50 was > 27.8 µM (inactive).

`CCc1ccc2[nH]c3nc(SCC(=O)NCc4cccc(OC)c4)nnc3c2c1`: the IC50 was > 27.8 µM (inactive).

With `CCN(CC)C(=O)C(=O)c1cn(CC(=O)Nc2cccc(C(F)(F)F)c2)c2ccccc12`, the IC50 is 38 µM (inactive).

For the compound `COc1ccccc1NC(=O)CSc1nnc2c(n1)[nH]c1ccc(C)cc12`, the IC50 is 47.1 µM (inactive).

Take `CCN(CC)C(=O)C(=O)c1cn(CC(=O)N(CC)c2ccccc2)c2ccccc12`: the IC50 is > 27.8 µM (inactive).

With `O=C(CSC1CC(=O)N(c2cccc(Cl)c2)C1=O)Nc1ccc(Br)cc1` (centres undefined), the IC50 is > 27.8 µM (inactive).

Turning to `Cc1ccc(CNC(=O)CSc2nnc3c(n2)[nH]c2ccc(C)cc23)cc1`, the IC50 was > 27.8 µM (inactive).

As to `COc1ccc(CCN(C(=S)Nc2ccccc2)C2CC(=O)N(c3ccc(Cl)cc3)C2=O)cc1` (centres undefined), the IC50 was 27.2 µM (inactive).

As for `O=C1CC(NCCc2ccccc2)C(=O)N1c1ccc(Br)cc1` (centres undefined), the IC50 was > 83.3 µM (inactive).

Regarding `O=C(Cn1cc(C(=O)c2ccccc2)c2ccccc21)Nc1cccc(C(F)(F)F)c1`, the IC50 was 55.5 µM (inactive).

As for `CCN(C(=O)Cn1cc(C(=O)C(=O)N2CCOCC2)c2ccccc21)c1ccccc1`, the IC50 is > 83.3 µM (inactive).

Regarding `CCN(CC)C(=O)C(=O)c1cn(CC(=O)Nc2cccc(OC)c2)c2ccccc12`, the IC50 was > 27.8 µM (inactive).

Regarding `Cc1cccc2[nH]c(C3CCCN(C(=O)c4cccc5cccnc45)C3)nc12` (centres undefined), the IC50 is > 27.8 µM (inactive).

Regarding `O=C(NCCc1nc2ccccc2[nH]1)c1ccc(Cl)cc1Cl`, the IC50 was > 27.8 µM (inactive).

As to `CNC(=S)N(CCc1ccccc1)C1CC(=O)N(c2ccc(Br)cc2)C1=O` (centres undefined), the IC50 is > 27.8 µM (inactive).

As for `COc1ccc(CCN(C(=O)c2cccc(F)c2)C2CC(=O)N(c3ccc(Br)cc3)C2=O)cc1` (centres undefined), the IC50 is > 83.3 µM (inactive).

As to `O=C(NCCc1nc2ccccc2[nH]1)c1c(F)cccc1F`, the IC50 was > 83.3 µM (inactive).

Consider `CCc1ccc2c(c1)c1nnc(SCC(=O)Nc3ccc4c(c3)OCO4)nc1n2C`, for which the IC50 is 81.1 µM (inactive).

For the compound `O=C(NCCc1nc2ccccc2[nH]1)c1ccc(Cl)cc1`, the IC50 was > 27.8 µM (inactive).

Consider `Cc1ccc(C(=O)NCCc2nc3ccccc3[nH]2)cc1[N+](=O)[O-]`, for which the IC50 is > 27.8 µM (inactive).

As to `CC(C)c1nc2ccc(C(=O)N(C)CCc3nc4ccc(F)cc4[nH]3)cc2o1`, the IC50 was > 83.3 µM (inactive).

For the compound `O=C(CSc1nnc2c(n1)[nH]c1ccc(Br)cc12)NCc1ccccc1`, the IC50 was > 27.8 µM (inactive).

Take `COc1ccc(NC(=O)C2CC(=O)n3c(nc4ccccc43)N2)cc1` (centres undefined): the IC50 is > 83.3 µM (inactive).

With `O=C(Cn1cc(C(=O)C2CC2)c2ccccc21)Nc1cccc(C(F)(F)F)c1`, the IC50 is > 27.8 µM (inactive).

For `CCC(=O)c1cn(CC(=O)Nc2cccc(C(F)(F)F)c2)c2ccccc12`, the IC50 was > 27.8 µM (inactive).

`COc1cccc(NC(=O)C2CC(=O)n3c(nc4ccccc43)N2)c1` (centres undefined): the IC50 was > 83.3 µM (inactive).

Turning to `Cc1cc2cc(C(=O)N3CCCC(c4nc5ccccc5[nH]4)C3)ccc2o1` (centres undefined), the IC50 is > 27.8 µM (inactive).

For the compound `O=C(Cn1cc(C(=O)c2ccco2)c2ccccc21)Nc1cccc(C(F)(F)F)c1`, the IC50 was 74 µM (inactive).

On to `Cc1cccc(C(=O)NCCc2nc3ccccc3n2CCOc2ccccc2)c1`, for which the IC50 was > 27.8 µM (inactive).

With `O=C(Cn1cc(C(=O)COc2ccccc2)c2ccccc21)Nc1cccc(C(F)(F)F)c1`, the IC50 was > 27.8 µM (inactive).

On to `O=C(Cn1cc(C(=O)C(=O)N2CCOCC2)c2ccccc21)NCC1CCCO1` (centres undefined), for which the IC50 is > 83.3 µM (inactive).

For `CC(=O)c1cn(CC(=O)Nc2cccc(C(F)(F)F)c2)c2ccccc12`, the IC50 was > 27.8 µM (inactive).

On to `Cn1c(CCNC(=O)c2ccc(Cl)cc2)nc2ccccc21`, for which the IC50 was > 27.8 µM (inactive).

With `CC1Cc2ccccc2N1C(=O)Cn1cc(C(=O)C(=O)N2CCOCC2)c2ccccc21` (centres undefined), the IC50 was > 83.3 µM (inactive).

As for `CCCCn1c(CCNC(=O)c2ccc(F)cc2)nc2ccccc21`, the IC50 was > 27.8 µM (inactive).

The term IC50 denotes the concentration that inhibits the measured activity by half.
